Experimental data published in patent publication US9283242B2, “Uses of dihydro bases” (priority 2013, dated 2016).

Legend:
[1] = tested on: HK82 (AlkB−) E. coli cells; assay type: cell-based; conditions: for Polymerase bypass efficiency, Avg.: HK82, percentage relative to unmodified control genome, triplicate
HK82SOS = test: CRAB lesion bypass assay, HK82SOS cells; assay type: cell-based, E. coli; conditions: percentage relative to unmodified control genome
Source text: (§1) All E. coli strains used in this work contain the F′ episome, which enables infection by M13 phage. GW5100 strain was used for large scale preparation of M13 phage DNA, SCS 110 (JM110, end Al) was used for amplification of progeny phage post-electroporation, and NR9050 was the strain of choice for double agar plating with X-GAL for blue-clear detection of plaques. The E. coli strains used to replicate lesion-containing phage were HK81 (as AB1157, but nalA) and HK82 (as AB1157, but nalA alkB22; AlkB-deficient).
Lesion-containing genomes were mixed with the competitor genome (80:20 molar ratio) and electroporated in triplicate into 100 μl competent cells using a 2 mm-gap cuvette and a BTX electroporator set to 2.5 kV and 125 a Typical pulse lengths were 4.9 msec. The cells were immediately transferred to 10 ml LB and an aliquot was immediately plated using the agar overlay method to verify that a minimum of 10^5 independent initial electroporation events occurred in 10 ml of culture. Incubation for 6 h at 37° C. with aeration generated the progeny phage, which were then reamplified in SCS 110 cells (10 μl overnight culture and 100 μl of the 6 h supernatant in 10 ml LB) to dilute out the residual genomic DNA used for electroporation. Single-stranded M13 progeny phage DNA was isolated from 1.4 ml of supernatant using a Q1Aprep Spin M13 Kit with final DNA suspension in 100 μl elution buffer. CRAB forward and reverse primers were used to amplify the region of interest from 15 μl per Q1Aprep elution sample in a total volume of 25 μl containing 50 pmol of each primer, 1×Pfu Turbo buffer, 1.25 U Pfu Turbo DNA polymerase and […] of each dNTP. The PCR program used 30 cycles of 67° C. (1 min) annealing and 72° C. (1 min) extensions. […] The gels were visualized on a phosphorimager (Typhoon 7000, GE Healthcare Life Sciences); the band intensities were quantified using IMAGEJ software (National Institutes of Health). Lesion bypass was calculated as the percentage ratio of the intensity of the 18-mer band (lesion signal) to the intensity of the 21-mer band (competitor signal). […]

[2] = tested on: HK81 (AlkB+) E. coli cells; assay type: cell-based; conditions: HK81; percentage relative to unmodified control genome
Description: (A) A 16mer oligonucleotide containing KP1212 (SEQ ID NO: 1) (or controls) at a specific site was chemically synthesized and ligated into the genome of an M13 bacteriophage. (B) The KP1212-containing M13 genomes were replicated within E. coli cells. Progeny were analyzed to characterize the amount and the type of nucleic acid base placed opposite the lesion during replication. The relative reduction in lesion vs. non-lesion competitor progeny formation was used as an estimate of the extent to which KP1212 and m3C inhibited DNA replication. (C) The KP1212-containing M13 genomes were used as templates for in vitro polymerase extension assays, carried out at 72° C., using the high-fidelity DNA polymerase PfuTurbo. (D) Bypass efficiency (CRAB assay) of KP1212, m3C, C in HK81 (AlkB^+) and HK82 (AlkB^−) E. coli cells. m3C and undamaged C were used as controls. Genomes were made and normalized to one another before being combined with a competitor genome. Each mixture was transformed into the corresponding cell strain in triplicate, and bypass efficiency was calculated by using the undamaged C genome as 100% bypass, with error bars representing one standard deviation. (E) Mutagenesis (REAP assay) of KP1212, m3C, and C in HK82 (AlkB^−) E. coli cells. m3C, undamaged C, and an approximately equimolar mixture of genomes carrying unmodified G/A/T/C bases at the site of inquiry (denoted as GATC) were used as controls. Genomes containing the lesions of interest were transfected into E. coli in triplicate.
as §1

[3] = tested on: HK82 (AlkB−) E. coli cells; assay type: cell-based; conditions: for Mutagenicity, Average % A / Mutagenicity, Average % C / Mutagenicity, Average % G / Mutagenicity, Average % T: (a) HK82; for base pairing / mutagenicity (in words): FIGS. 18C, 18E, m3C in repair deficient cells
[4] = tested on: HK81 (AlkB+) E. coli cells; test: REAP mutagenesis assay, HK81 cells; assay type: cell-based; conditions: for Mutagenicity, Average % A / Mutagenicity, Average % G / Mutagenicity, Average % T: (c) HK81
Source text: as §1
Lesion-containing genomes were mixed with the competitor genome (80:20 molar ratio) and electroporated in triplicate into 100 μl competent cells using a 2 mm-gap cuvette and a BTX electroporator set to 2.5 kV and 125 a Typical pulse lengths were 4.9 msec. The cells were immediately transferred to 10 ml LB and an aliquot was immediately plated using the agar overlay method to verify that a minimum of 10^5 independent initial electroporation events occurred in 10 ml of culture. Incubation for 6 h at 37° C. with aeration generated the progeny phage, which were then reamplified in SCS 110 cells (10 μl overnight culture and 100 μl of the 6 h supernatant in 10 ml LB) to dilute out the residual genomic DNA used for electroporation. Single-stranded M13 progeny phage DNA was isolated from 1.4 ml of supernatant using a Q1Aprep Spin M13 Kit with final DNA suspension in 100 μl elution buffer. CRAB forward and reverse primers were used to amplify the region of interest from 15 μl per Q1Aprep elution sample in a total volume of 25 μl containing 50 pmol of each primer, 1×Pfu Turbo buffer, 1.25 U Pfu Turbo DNA polymerase and […] of each dNTP. The PCR program used 30 cycles of 67° C. (1 min) annealing and 72° C. (1 min) extensions. After purification using QIAQUICK PCR purification columns, 4 μl of the PCR product were treated with BbsI (1.5 U) and SAP (0.3 U) in a total volume of 6 μl by incubating at 37° C. for 4 h. After phosphatase inactivation, (80° C. for 5 min), the 5′ ends were then radiolabeled using [γ-^32P]-ATP (1.66 pmol, 10 μCi/μl, 6000 Ci/mmol), cold ATP (16 pmol) and 5 U of OPTIKINASE at 37° C. for 30 min. Following the kinase inactivation at 65° C. for 20 min, the labeled product was then trimmed by HaeIII (10 U in a final volume of 10 μl) at 37° C. for 2 h, and diluted 1:1 in formamide loading dye. PAGE separation on a 20% denaturing gel, run for about 3.5 h at 550 V, until the xylene cyanol dye migrated 10.5 cm, yielded two bands for each sample: an 18-mer originating from the lesion-containing genome and a 21-mer originating from the competitor genome. The gels were visualized on a phosphorimager (Typhoon 7000, GE Healthcare Life Sciences); the band intensities were quantified using IMAGEJ software (National Institutes of Health). Lesion bypass was calculated as the percentage ratio of the intensity of the 18-mer band (lesion signal) to the intensity of the 21-mer band (competitor signal).
The REAP assay methodology is identical to the CRAB assay except for the PCR primers, which amplified only the progeny DNA originating from the lesion-carrying genomes. Following electrophoresis, the 18-mer bands were excised from the gel, crushed and extracted with 200 μl water. After desalting with SEPHADEX G-50 Fine resin spin columns, the samples were lyophilized to dryness, resuspended in 5 μl containing 1 μg P1 Nuclease in 30 mM sodium acetate (pH 5.3) and 10 mM zinc chloride, and incubated at 50° C. for 1 h. One μl of each sample was then spotted onto PEI-TLC plates and separated using 200 ml of a saturated solution of (NH4)2HPO4 adjusted to pH 5.8. After 24 h of development, the TLC plates were air-dried and quantified using phosphorimagery. […]

[5] = in vitro and in vivo replication of a single-stranded vector containing a single KP1212

SMILES	replication block / toxicity to replication ([1]; E. coli (FIG. 18D), for m3C cells that lack AlkB)	Polymerase bypass efficiency, Avg. [1]	Polymerase bypass efficiency, Avg. (HK82SOS)	Polymerase bypass efficiency, Avg. [2]	Mutagenicity, Average % A [3]	Mutagenicity, Average % C [3]	Mutagenicity, Average % G [3]	Mutagenicity, Average % T [3]	base pairing / mutagenicity (in words) [3]	in vivo mutation frequency ([3]; frequency of pairing with any non-G base (A))	paired with A [3, 5]	paired with G [3, 5]	pairing with A in vivo ([3]; in vivo, E. coli (FIG. 18E))	pairing with G in vivo ([3]; in vivo, E. coli (FIG. 18E))	mutation frequency ([3]; observed in vitro and in vivo in this study)	Mutagenicity, Average % C [4]	Mutagenicity, Average % A [4]	Mutagenicity, Average % G [4]	Mutagenicity, Average % T [4]
NC1=NC(=O)N([C@H]2C[C@H](O)[C@@H](CO)O2)CN1 [KP1212, 5-aza-5,6-dihydro-2′-deoxycytidine]	not to be a replication block	91%	124%	128%	0.0%	89.1%	0.4%	10.5%	mutagenic both in vitro and in vivo	approximately 10%	10%	90%	10%	90%	10%	90.2%	0.2%	0.1%	9.5%
Nc1ccn([C@H]2C[C@H](O)[C@@H](CO)O2)c(=O)n1 [dC, deoxycytidine]		100%	100%	100%	0.0%	100.0%	0.0%	0.0%	only pairs with G							99.9%	0.1%	0.0%	0.0%
